According to US20060079696A1, “Substituted compounds derived from N-(benzyl)phenylacetamide, preparation and uses” (GENFIT, priority 2004, published 2006):

Key:
[1] = target: T1, ATP-dependent potassium channels (K+ATP) (Rattus norvegicus, UniProt Q09429); assay: [3H]glibenclamide binding to ATP-dependent potassium channels of rat cerebral cortex; conditions: FIG. 2
T1 construct: the potassium channels derive from a rat's cerebral cortex; tissue CEREP; host or cells: rat cerebral cortex
Method in brief: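 Rat cerebral cortex membranes incubated 1 h at 22° C with 0.1 nM [3H]glibenclamide; nonspecific binding defined with 1 μM unlabelled glibenclamide. Compounds tested at 3–300 nM; values are percent inhibition of specific binding.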

[2] = tested on: isolated human pancreatic islets; assay: Insulin secretion by isolated human pancreatic islets; assay type: cell-based; conditions: 1 hour incubation
Description: Isolated islets of Langerhans were put together with compounds according to the invention. They were incubated for one hour, and then the supernatant was taken off. The insulin contained in the supernatant (which corresponds to the insulin secreted by the islets over 1 hr) was titrated. It was compared to the basal secretion of insulin, i.e. to the quantity of insulin secreted by the islets over 1 hour in the absence of a compound. The higher the induced insulin/basal insulin ratio, the stronger the insulinotropic potential of the compound.
This study was carried out in the cellular therapy of diabetes laboratory led by Professor Pattou (INSERM ERIT-M 0106, Faculty of medicine of Lille, France (59)). The protocols for the extraction of islets and culture are published (Riachy, Vandewalle et al. 2001). The islets were cultured in a CMRL1066 (Gibco BRL) medium containing 5.5 mmol/l glucose. They were put together with the compounds (+0.001% DMSO). The insulin secreted was measured after 1 hour incubation (titration of the supernatant after centrifugation and extraction as described in the reference) according to a radioimmunological titration method (BI-INSULIN IRMA kit, Sanofi Diagnostics Pasteur). Each condition was applied to 5 independent islets preparations, each containing 40 equivalent islets (40 IE). […]

[3] = tested on: Male Sprague-Dawley rats; assay: Glycemia and insulinemia after oral administration in fasted rats; assay type: in vivo, rat
Excerpt: In normal animals (as in man), the consequence of the administration of insulinotropic compounds is a significant increase in the plasmatic level of insulin. This induced hyperinsulinemia induces a reduction in glycemia. This example studies the evolution of glycemia and of insulinemia following oral administration of the inventive compounds in rats: the insulinotropic action of the compounds in vivo should induce a significant decrease of glycemia.
Male Sprague-Dawley rats (300-320 g) (CERJ—Le Genest St Isle-France) were used in order to carry out this experiment. The rats were fed with a standard diet of granular material; they had free access to food and drink and were kept in individual, ventilated cages in a 12 hr/12 hr light/dark rhythm. The animals were deprived of food for 16 hours prior to the experiment.
The compound was suspended in an aqueous carboxymethylcellulose solution (Sigma C4888) at 1% containing 0.1% Tween80 (Sigma P8074). The animals of the control group received the vehicle alone. The treated animals received a single administration of the compound (the suspension was administered by gavage at the rate of 10 ml/kg). Each group was made up of 11 animals. A 1st blood sample was taken by puncturing the retro-orbital sinus of the animals under volatile isoflurane anaesthesia: this sample makes up the initial time of the experiment. The substance or the vehicle were immediately administered to the animals by gavage, and blood samples were taken over time.
The animals' glycemia was measured in real time using a glucometer (Glucotrend2-Roche Diagnostic-France). The insulinemias were measured using an ELISA kit (Insulin Elisa Kit—Crystal Chem. USA). The method used was of the ELISA type: plasmatic insulin was specifically bound to anti-insulin monoclonal antibodies immobilised on the microtitration plate; simultaneously, an anti-insulin polyclonal guinea pig antibody was added to the reaction. The revelation of the reaction was guaranteed by an antibody coupled to peroxidase. These antibodies bind specifically to the guinea pig's immunoglobulins. The production of oxidised chromogen causes an increase in absorbance in proportion to the quantity of insulin present in the sample.

T1 sequence (Q09429 whole entry): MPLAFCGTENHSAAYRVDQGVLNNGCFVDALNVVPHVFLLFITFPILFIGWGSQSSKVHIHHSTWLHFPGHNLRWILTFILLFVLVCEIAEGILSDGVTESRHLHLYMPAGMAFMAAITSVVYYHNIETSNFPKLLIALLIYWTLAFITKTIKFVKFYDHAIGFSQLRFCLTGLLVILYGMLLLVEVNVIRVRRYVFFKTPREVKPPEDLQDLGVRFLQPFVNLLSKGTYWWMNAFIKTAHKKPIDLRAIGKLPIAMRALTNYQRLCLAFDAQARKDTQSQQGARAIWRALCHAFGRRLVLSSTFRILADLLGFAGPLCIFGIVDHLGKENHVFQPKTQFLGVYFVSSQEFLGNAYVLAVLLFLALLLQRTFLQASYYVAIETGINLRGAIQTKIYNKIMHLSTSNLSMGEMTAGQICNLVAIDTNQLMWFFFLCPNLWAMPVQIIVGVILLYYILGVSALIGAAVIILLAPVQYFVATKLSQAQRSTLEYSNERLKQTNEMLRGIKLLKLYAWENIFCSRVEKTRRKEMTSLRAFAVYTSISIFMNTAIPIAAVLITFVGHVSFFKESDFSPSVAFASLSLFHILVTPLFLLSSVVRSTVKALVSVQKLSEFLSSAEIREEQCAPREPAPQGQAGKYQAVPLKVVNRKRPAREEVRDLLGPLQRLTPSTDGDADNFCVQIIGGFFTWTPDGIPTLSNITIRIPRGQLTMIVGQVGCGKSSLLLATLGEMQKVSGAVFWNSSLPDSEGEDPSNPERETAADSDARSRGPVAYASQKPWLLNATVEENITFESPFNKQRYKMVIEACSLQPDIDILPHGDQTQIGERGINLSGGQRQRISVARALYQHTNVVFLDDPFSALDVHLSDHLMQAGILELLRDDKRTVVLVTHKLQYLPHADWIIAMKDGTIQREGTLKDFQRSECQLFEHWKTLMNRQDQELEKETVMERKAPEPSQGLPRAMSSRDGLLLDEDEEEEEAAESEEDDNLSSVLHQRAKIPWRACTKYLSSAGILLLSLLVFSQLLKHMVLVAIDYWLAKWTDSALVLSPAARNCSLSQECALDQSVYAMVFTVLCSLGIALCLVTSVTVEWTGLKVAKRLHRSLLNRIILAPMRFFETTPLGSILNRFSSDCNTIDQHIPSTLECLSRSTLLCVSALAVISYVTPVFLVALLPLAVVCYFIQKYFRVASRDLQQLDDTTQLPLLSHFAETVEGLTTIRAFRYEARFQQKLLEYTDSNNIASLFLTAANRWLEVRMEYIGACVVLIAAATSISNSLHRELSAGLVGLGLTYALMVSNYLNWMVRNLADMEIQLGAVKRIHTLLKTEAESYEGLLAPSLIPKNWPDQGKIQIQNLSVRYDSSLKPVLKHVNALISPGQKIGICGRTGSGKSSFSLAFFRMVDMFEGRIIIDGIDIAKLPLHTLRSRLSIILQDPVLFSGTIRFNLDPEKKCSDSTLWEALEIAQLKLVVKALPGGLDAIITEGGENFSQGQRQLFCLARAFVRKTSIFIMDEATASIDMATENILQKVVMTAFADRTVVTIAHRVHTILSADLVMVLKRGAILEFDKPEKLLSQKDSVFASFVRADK
T1 sequence (P70673 whole entry partner): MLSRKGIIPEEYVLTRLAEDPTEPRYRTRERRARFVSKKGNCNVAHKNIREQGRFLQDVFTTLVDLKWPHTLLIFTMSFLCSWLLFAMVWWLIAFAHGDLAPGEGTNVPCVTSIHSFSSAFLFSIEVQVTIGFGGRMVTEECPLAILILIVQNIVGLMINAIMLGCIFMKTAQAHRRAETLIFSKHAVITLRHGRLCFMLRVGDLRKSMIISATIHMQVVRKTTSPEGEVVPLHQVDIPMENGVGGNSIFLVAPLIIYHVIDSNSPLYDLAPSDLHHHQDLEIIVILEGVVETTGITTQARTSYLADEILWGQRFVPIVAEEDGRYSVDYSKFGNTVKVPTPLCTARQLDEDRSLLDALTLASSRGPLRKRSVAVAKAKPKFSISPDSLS

- IC50 [1]: 14 nM
SMILES: CC(C)CC(NC(=O)Cc1ccc(OC(C)(C)C(=O)O)cc1)c1ccccc1N1CCCCC1 (stereo not drawn) [Compound 1, 2-[4-[1-(3-methyl-1-(2-(1-piperidinyl)phenyl)butyl)aminocarbonylmethyl]phenoxy]-2-methylpropanoic acid]
- insulinotropic activity on human islets ([2]; 0.1 μM): not having any significant insulinotropic activity
- insulin secreted in 1 hour versus non-treated islets ([2]; 1 μM): ~4 times
- decrease in glycemia between T=0 and T=120 min ([3]; 50 mpk, oral, fasted rat): 48%
- plasmatic insulin peak, time following administration ([3]; 50 mpk, oral, fasted rat): 15 min
- hypoglycemia kinetics and amplitude compared with compound 52 ([3]; comparison of FIGS. 5a and 5c): faster and more intense
